# System: HL-60
# Assay: Cytotoxicity against human HL60 cells assessed as growth inhibition at 10 uM after 24 to 48 hrs by MTT assay relative to control
# Format: functional
# Conditions: read-out: GI
row,Compound,inhibition of growth at 10 µM
1,O=C(c1ccccc1F)N(c1ccccc1)c1ccnc2ccc(-c3ccc(O)cc3)cc12,55%
2,O=S(=O)(c1ccc(F)cc1)N(c1ccccc1)c1ccnc2ccc(-c3ccc(O)cc3)cc12,2%
3,COc1ccc(S(=O)(=O)N(c2ccccc2)c2ccnc3ccc(-c4ccc(O)cc4)cc23)cc1,63%
4,O=C(c1cccnc1Cl)N(c1ccccc1)c1ccnc2ccc(-c3ccc(O)cc3)cc12,92%
5,Oc1ccc(-c2ccc3nccc(Nc4ccccc4)c3c2)cc1,41%

# System: HL-60
# Assay: Cytotoxicity against human HL60 cells assessed as growth inhibition at 30 uM after 24 to 48 hrs by MTT assay relative to control
# Format: functional
# Conditions: read-out: GI
row,Compound,inhibition of growth at 30 µM
1,O=C(c1ccccc1F)N(c1ccccc1)c1ccnc2ccc(-c3ccc(O)cc3)cc12,93%
2,O=S(=O)(c1ccc(F)cc1)N(c1ccccc1)c1ccnc2ccc(-c3ccc(O)cc3)cc12,51%
3,COc1ccc(S(=O)(=O)N(c2ccccc2)c2ccnc3ccc(-c4ccc(O)cc4)cc23)cc1,87%
4,O=C(c1cccnc1Cl)N(c1ccccc1)c1ccnc2ccc(-c3ccc(O)cc3)cc12,94%
5,Oc1ccc(-c2ccc3nccc(Nc4ccccc4)c3c2)cc1,65%

# System: HL-60
# Assay: Cytotoxicity against human HL60 cells assessed as growth inhibition at 100 uM after 24 to 48 hrs by MTT assay relative to control
# Format: functional
# Conditions: read-out: GI
row,Compound,inhibition of growth at 100 µM
1,O=C(c1ccccc1F)N(c1ccccc1)c1ccnc2ccc(-c3ccc(O)cc3)cc12,94%
2,O=S(=O)(c1ccc(F)cc1)N(c1ccccc1)c1ccnc2ccc(-c3ccc(O)cc3)cc12,79%
3,COc1ccc(S(=O)(=O)N(c2ccccc2)c2ccnc3ccc(-c4ccc(O)cc4)cc23)cc1,89%
4,O=C(c1cccnc1Cl)N(c1ccccc1)c1ccnc2ccc(-c3ccc(O)cc3)cc12,95%
5,Oc1ccc(-c2ccc3nccc(Nc4ccccc4)c3c2)cc1,82%

# System: not listed separately
# Assay: Cytotoxicity against human MIAPaCa2 cells assessed as growth inhibition at 10 uM after 24 to 48 hrs by MTT assay relative to control
# Format: functional
# Conditions: MIA PaCa-2, read-out: GI
row,Compound,inhibition of growth at 10 µM
1,O=C(c1ccccc1F)N(c1ccccc1)c1ccnc2ccc(-c3ccc(O)cc3)cc12,36%
2,O=S(=O)(c1ccc(F)cc1)N(c1ccccc1)c1ccnc2ccc(-c3ccc(O)cc3)cc12,9%
3,COc1ccc(S(=O)(=O)N(c2ccccc2)c2ccnc3ccc(-c4ccc(O)cc4)cc23)cc1,63%
4,O=C(c1cccnc1Cl)N(c1ccccc1)c1ccnc2ccc(-c3ccc(O)cc3)cc12,69%
5,Oc1ccc(-c2ccc3nccc(Nc4ccccc4)c3c2)cc1,28%

# System: not listed separately
# Assay: Cytotoxicity against human MIAPaCa2 cells assessed as growth inhibition at 30 uM after 24 to 48 hrs by MTT assay relative to control
# Format: functional
# Conditions: MIA PaCa-2, read-out: GI
row,Compound,inhibition of growth at 30 µM
1,O=C(c1ccccc1F)N(c1ccccc1)c1ccnc2ccc(-c3ccc(O)cc3)cc12,90%
2,O=S(=O)(c1ccc(F)cc1)N(c1ccccc1)c1ccnc2ccc(-c3ccc(O)cc3)cc12,30%
3,COc1ccc(S(=O)(=O)N(c2ccccc2)c2ccnc3ccc(-c4ccc(O)cc4)cc23)cc1,81%
4,O=C(c1cccnc1Cl)N(c1ccccc1)c1ccnc2ccc(-c3ccc(O)cc3)cc12,89%
5,Oc1ccc(-c2ccc3nccc(Nc4ccccc4)c3c2)cc1,91%

# System: not listed separately
# Assay: Cytotoxicity against human MIAPaCa2 cells assessed as growth inhibition at 100 uM after 24 to 48 hrs by MTT assay relative to control
# Format: functional
# Conditions: MIA PaCa-2, read-out: GI
row,Compound,inhibition of growth at 100 µM
1,O=C(c1ccccc1F)N(c1ccccc1)c1ccnc2ccc(-c3ccc(O)cc3)cc12,90%
2,O=S(=O)(c1ccc(F)cc1)N(c1ccccc1)c1ccnc2ccc(-c3ccc(O)cc3)cc12,70%
3,COc1ccc(S(=O)(=O)N(c2ccccc2)c2ccnc3ccc(-c4ccc(O)cc4)cc23)cc1,86%
4,O=C(c1cccnc1Cl)N(c1ccccc1)c1ccnc2ccc(-c3ccc(O)cc3)cc12,89%
5,Oc1ccc(-c2ccc3nccc(Nc4ccccc4)c3c2)cc1,93%

# System: HCT-116
# Assay: Cytotoxicity against human HCT116 cells assessed as growth inhibition at 10 uM after 24 to 48 hrs by MTT assay relative to control
# Format: functional
# Conditions: read-out: GI
row,Compound,inhibition of growth at 10 µM
1,O=C(c1ccccc1F)N(c1ccccc1)c1ccnc2ccc(-c3ccc(O)cc3)cc12,26%
2,O=S(=O)(c1ccc(F)cc1)N(c1ccccc1)c1ccnc2ccc(-c3ccc(O)cc3)cc12,20%
3,COc1ccc(S(=O)(=O)N(c2ccccc2)c2ccnc3ccc(-c4ccc(O)cc4)cc23)cc1,10%
4,O=C(c1cccnc1Cl)N(c1ccccc1)c1ccnc2ccc(-c3ccc(O)cc3)cc12,29%
5,Oc1ccc(-c2ccc3nccc(Nc4ccccc4)c3c2)cc1,8%

# System: HCT-116
# Assay: Cytotoxicity against human HCT116 cells assessed as growth inhibition at 30 uM after 24 to 48 hrs by MTT assay relative to control
# Format: functional
# Conditions: read-out: GI
row,Compound,inhibition of growth at 30 µM
1,O=C(c1ccccc1F)N(c1ccccc1)c1ccnc2ccc(-c3ccc(O)cc3)cc12,32%
2,O=S(=O)(c1ccc(F)cc1)N(c1ccccc1)c1ccnc2ccc(-c3ccc(O)cc3)cc12,57%
3,COc1ccc(S(=O)(=O)N(c2ccccc2)c2ccnc3ccc(-c4ccc(O)cc4)cc23)cc1,39%
4,O=C(c1cccnc1Cl)N(c1ccccc1)c1ccnc2ccc(-c3ccc(O)cc3)cc12,88%
5,Oc1ccc(-c2ccc3nccc(Nc4ccccc4)c3c2)cc1,53%

# System: HCT-116
# Assay: Cytotoxicity against human HCT116 cells assessed as growth inhibition at 100 uM after 24 to 48 hrs by MTT assay relative to control
# Format: functional
# Conditions: read-out: GI
row,Compound,inhibition of growth at 100 µM
1,O=C(c1ccccc1F)N(c1ccccc1)c1ccnc2ccc(-c3ccc(O)cc3)cc12,88%
2,O=S(=O)(c1ccc(F)cc1)N(c1ccccc1)c1ccnc2ccc(-c3ccc(O)cc3)cc12,92%
3,COc1ccc(S(=O)(=O)N(c2ccccc2)c2ccnc3ccc(-c4ccc(O)cc4)cc23)cc1,79%
4,O=C(c1cccnc1Cl)N(c1ccccc1)c1ccnc2ccc(-c3ccc(O)cc3)cc12,89%
5,Oc1ccc(-c2ccc3nccc(Nc4ccccc4)c3c2)cc1,86%

# System: HepG2
# Assay: Cytotoxicity against human HepG2 cells assessed as growth inhibition at 10 uM after 24 to 48 hrs by MTT assay relative to control
# Format: functional
# Conditions: read-out: GI
row,Compound,inhibition of growth at 10 µM
1,O=C(c1ccccc1F)N(c1ccccc1)c1ccnc2ccc(-c3ccc(O)cc3)cc12,22%
2,O=S(=O)(c1ccc(F)cc1)N(c1ccccc1)c1ccnc2ccc(-c3ccc(O)cc3)cc12,1%
3,COc1ccc(S(=O)(=O)N(c2ccccc2)c2ccnc3ccc(-c4ccc(O)cc4)cc23)cc1,20%
4,O=C(c1cccnc1Cl)N(c1ccccc1)c1ccnc2ccc(-c3ccc(O)cc3)cc12,19%
5,Oc1ccc(-c2ccc3nccc(Nc4ccccc4)c3c2)cc1,8%

# System: HepG2
# Assay: Cytotoxicity against human HepG2 cells assessed as growth inhibition at 30 uM after 24 to 48 hrs by MTT assay relative to control
# Format: functional
# Conditions: read-out: GI
row,Compound,inhibition of growth at 30 µM
1,O=C(c1ccccc1F)N(c1ccccc1)c1ccnc2ccc(-c3ccc(O)cc3)cc12,84%
2,O=S(=O)(c1ccc(F)cc1)N(c1ccccc1)c1ccnc2ccc(-c3ccc(O)cc3)cc12,10%
3,COc1ccc(S(=O)(=O)N(c2ccccc2)c2ccnc3ccc(-c4ccc(O)cc4)cc23)cc1,78%
4,O=C(c1cccnc1Cl)N(c1ccccc1)c1ccnc2ccc(-c3ccc(O)cc3)cc12,87%
5,Oc1ccc(-c2ccc3nccc(Nc4ccccc4)c3c2)cc1,53%

# System: HepG2
# Assay: Cytotoxicity against human HepG2 cells assessed as growth inhibition at 100 uM after 24 to 48 hrs by MTT assay relative to control
# Format: functional
# Conditions: read-out: GI
row,Compound,inhibition of growth at 100 µM
1,O=C(c1ccccc1F)N(c1ccccc1)c1ccnc2ccc(-c3ccc(O)cc3)cc12,87%
2,O=S(=O)(c1ccc(F)cc1)N(c1ccccc1)c1ccnc2ccc(-c3ccc(O)cc3)cc12,60%
3,COc1ccc(S(=O)(=O)N(c2ccccc2)c2ccnc3ccc(-c4ccc(O)cc4)cc23)cc1,86%
4,O=C(c1cccnc1Cl)N(c1ccccc1)c1ccnc2ccc(-c3ccc(O)cc3)cc12,88%
5,Oc1ccc(-c2ccc3nccc(Nc4ccccc4)c3c2)cc1,86%

# System: PC-3
# Assay: Cytotoxicity against human PC3 cells assessed as growth inhibition at 10 uM after 24 to 48 hrs by MTT assay relative to control
# Format: functional
# Conditions: read-out: GI
row,Compound,inhibition of growth at 10 µM
1,O=C(c1ccccc1F)N(c1ccccc1)c1ccnc2ccc(-c3ccc(O)cc3)cc12,27%
2,O=S(=O)(c1ccc(F)cc1)N(c1ccccc1)c1ccnc2ccc(-c3ccc(O)cc3)cc12,16%
3,COc1ccc(S(=O)(=O)N(c2ccccc2)c2ccnc3ccc(-c4ccc(O)cc4)cc23)cc1,15%
4,O=C(c1cccnc1Cl)N(c1ccccc1)c1ccnc2ccc(-c3ccc(O)cc3)cc12,47%
5,Oc1ccc(-c2ccc3nccc(Nc4ccccc4)c3c2)cc1,27%

# System: PC-3
# Assay: Cytotoxicity against human PC3 cells assessed as growth inhibition at 30 uM after 24 to 48 hrs by MTT assay relative to control
# Format: functional
# Conditions: read-out: GI
row,Compound,inhibition of growth at 30 µM
1,O=C(c1ccccc1F)N(c1ccccc1)c1ccnc2ccc(-c3ccc(O)cc3)cc12,65%
2,O=S(=O)(c1ccc(F)cc1)N(c1ccccc1)c1ccnc2ccc(-c3ccc(O)cc3)cc12,43%
3,COc1ccc(S(=O)(=O)N(c2ccccc2)c2ccnc3ccc(-c4ccc(O)cc4)cc23)cc1,39%
4,O=C(c1cccnc1Cl)N(c1ccccc1)c1ccnc2ccc(-c3ccc(O)cc3)cc12,90%
5,Oc1ccc(-c2ccc3nccc(Nc4ccccc4)c3c2)cc1,74%

# System: PC-3
# Assay: Cytotoxicity against human PC3 cells assessed as growth inhibition at 100 uM after 24 to 48 hrs by MTT assay relative to control
# Format: functional
# Conditions: read-out: GI
row,Compound,inhibition of growth at 100 µM
1,O=C(c1ccccc1F)N(c1ccccc1)c1ccnc2ccc(-c3ccc(O)cc3)cc12,88%
2,O=S(=O)(c1ccc(F)cc1)N(c1ccccc1)c1ccnc2ccc(-c3ccc(O)cc3)cc12,87%
3,COc1ccc(S(=O)(=O)N(c2ccccc2)c2ccnc3ccc(-c4ccc(O)cc4)cc23)cc1,61%
4,O=C(c1cccnc1Cl)N(c1ccccc1)c1ccnc2ccc(-c3ccc(O)cc3)cc12,90%
5,Oc1ccc(-c2ccc3nccc(Nc4ccccc4)c3c2)cc1,90%

# System: HL-60
# Assay: cells
# Conditions: Homo sapiens, HL-60, 48 h
# Description: Cytotoxicity against human HL60 cells assessed as inhibition of cell proliferation after 48 hrs by MTT assay
row,Compound,IC50
1,O=C(c1ccccc1F)N(c1ccccc1)c1ccnc2ccc(-c3ccc(O)cc3)cc12,< 10 µM
2,O=S(=O)(c1ccc(F)cc1)N(c1ccccc1)c1ccnc2ccc(-c3ccc(O)cc3)cc12,28 µM
3,COc1ccc(S(=O)(=O)N(c2ccccc2)c2ccnc3ccc(-c4ccc(O)cc4)cc23)cc1,< 10 µM
4,O=C(c1cccnc1Cl)N(c1ccccc1)c1ccnc2ccc(-c3ccc(O)cc3)cc12,< 10 µM
5,Oc1ccc(-c2ccc3nccc(Nc4ccccc4)c3c2)cc1,14 µM

# System: not listed separately
# Assay: cells
# Conditions: Homo sapiens, MIA PaCa-2, 48 h
# Description: Cytotoxicity against human MIAPaCa2 cells assessed as inhibition of cell proliferation after 48 hrs by MTT assay
row,Compound,IC50
1,O=C(c1ccccc1F)N(c1ccccc1)c1ccnc2ccc(-c3ccc(O)cc3)cc12,15 µM
2,O=S(=O)(c1ccc(F)cc1)N(c1ccccc1)c1ccnc2ccc(-c3ccc(O)cc3)cc12,65 µM
3,COc1ccc(S(=O)(=O)N(c2ccccc2)c2ccnc3ccc(-c4ccc(O)cc4)cc23)cc1,< 10 µM
4,O=C(c1cccnc1Cl)N(c1ccccc1)c1ccnc2ccc(-c3ccc(O)cc3)cc12,< 10 µM
5,Oc1ccc(-c2ccc3nccc(Nc4ccccc4)c3c2)cc1,18 µM

# System: HCT-116
# Assay: cells
# Conditions: Homo sapiens, HCT-116, 48 h
# Description: Cytotoxicity against human HCT116 cells assessed as inhibition of cell proliferation after 48 hrs by MTT assay
row,Compound,IC50
1,O=C(c1ccccc1F)N(c1ccccc1)c1ccnc2ccc(-c3ccc(O)cc3)cc12,52 µM
2,O=S(=O)(c1ccc(F)cc1)N(c1ccccc1)c1ccnc2ccc(-c3ccc(O)cc3)cc12,27 µM
3,COc1ccc(S(=O)(=O)N(c2ccccc2)c2ccnc3ccc(-c4ccc(O)cc4)cc23)cc1,50 µM
4,O=C(c1cccnc1Cl)N(c1ccccc1)c1ccnc2ccc(-c3ccc(O)cc3)cc12,16 µM
5,Oc1ccc(-c2ccc3nccc(Nc4ccccc4)c3c2)cc1,27 µM

# System: HepG2
# Assay: cells
# Conditions: Homo sapiens, HepG2, 48 h
# Description: Cytotoxicity against human HepG2 cells assessed as inhibition of cell proliferation after 48 hrs by MTT assay
row,Compound,IC50
1,O=C(c1ccccc1F)N(c1ccccc1)c1ccnc2ccc(-c3ccc(O)cc3)cc12,18 µM
2,O=S(=O)(c1ccc(F)cc1)N(c1ccccc1)c1ccnc2ccc(-c3ccc(O)cc3)cc12,85 µM
3,COc1ccc(S(=O)(=O)N(c2ccccc2)c2ccnc3ccc(-c4ccc(O)cc4)cc23)cc1,20 µM
4,O=C(c1cccnc1Cl)N(c1ccccc1)c1ccnc2ccc(-c3ccc(O)cc3)cc12,19 µM
5,Oc1ccc(-c2ccc3nccc(Nc4ccccc4)c3c2)cc1,18 µM

# System: PC-3
# Assay: cells
# Conditions: Homo sapiens, PC-3, 48 h
# Description: Cytotoxicity against human PC3 cells assessed as inhibition of cell proliferation after 48 hrs by MTT assay
row,Compound,IC50
1,O=C(c1ccccc1F)N(c1ccccc1)c1ccnc2ccc(-c3ccc(O)cc3)cc12,22 µM
2,O=S(=O)(c1ccc(F)cc1)N(c1ccccc1)c1ccnc2ccc(-c3ccc(O)cc3)cc12,42 µM
3,COc1ccc(S(=O)(=O)N(c2ccccc2)c2ccnc3ccc(-c4ccc(O)cc4)cc23)cc1,65 µM
4,O=C(c1cccnc1Cl)N(c1ccccc1)c1ccnc2ccc(-c3ccc(O)cc3)cc12,11 µM
5,Oc1ccc(-c2ccc3nccc(Nc4ccccc4)c3c2)cc1,21 µM

# Reference: ChEMBL document CHEMBL3593172, “4-(N-Phenyl-N'-substituted benzenesulfonyl)-6-(4-hydroxyphenyl)quinolines as inhibitors of mammalian target of rapamycin” (Bioorg Med Chem, 2015)
